Reference: patent US5157032A, “Mixed ligand complexes and uses thereof as binding agents and probes to DNA” (The Trustees of Columbia University In The City of New York, priority 1990, dated 1992)
Read-outs that look alike come from different tables or passages of the source.

Columns and labels:
Solubility in buffer = format: physicochemical; conditions: for Solubilities in Buffer: chloride salts, 5 mM Tris, 50 mM NaCl, pH 7.5, 24 hrs., 25° C., SD in parentheses; for solubility: in words
Method: Measurement of Solubilities: Solubilities of the compounds wre measured by preparing saturated solutions of metal complex in buffer (50mM NaCl, 5 mM Tris, pH 7.5) and allowng the suspensions to equilibrate for 24 hours at 25 C. After that time, the solutions were spun down in an Eppendorff microcentrifuge at 15,000 rev/min for 2 minutes and the supernatant was carefully removed by pipette. After dilution, the ruthenuim concentrattions were measured by UV-visible absorbance.

calf thymus DNA [1] = assay: Equilibrium dialysis of racemic complexes against calf thymus DNA (Scatchard, dialysate CD); format: binding; parameters: Km × 10) equilibrium dialysis (intrinsic binding constant Kb): scale not given here; conditions: for Site size: fit to McGhee and von Hippel equation; for aggregation in solution / binding curve type (cooperativity) / binding affinity for DNA / Enantioselectivity: in words; for binding affinity for DNA: comparative; for Km × 10) equilibrium dialysis (intrinsic binding constant Kb): 5 mM Tris, 50 mM NaCl, pH 7.5, standard deviation in parentheses; for Enantioselectivity: dialysate circular dichroism
Method: Equilibrium Dialysis: Equlibrium dialysis of the reacemic metal complexes was perforemd against calf-thymus DNA using procedures described previously. (74) The buffer used was 5 mM Tris, 50 mM NaCl at pH 7.5. Samples were agitated on a shaker bath during equilibration which occurred after three to five days, as determined by control samples containing no DNA. After equilibration, volumes of liquid inside and outside the dialysis bags were determined (approximately 1 and 3 mls, respectively) and circular dichroism of the dialysate was meaxured on a Jasco J-40 spectropolarimeter. Final ruthenium concentration inside and outside the bags were measured by visible absorbance. Data anaylsis was performed on a VAX-780 using non-linear least squares analysis.
Equilibrium Dialysis: Equilibrium binding constants for the metal complexes with DNA may be determined classically by equilibrium dialysis. Calf thymus DNA was dialyzed against the series of mixed ligand complexes using a broad range of ruthenium concentrations. […] The results have been plotted according to Scatchard (88), where r is the ratio of bound metal to DNA-phosphate concentration, and cf is the concentration of free metal complex. The data were fit by non-linear least squares analysis to the McGhee and von Hippel equation (8945) governing random non-cooperative binding to a lattice,
where r is the ratio of bound concentration of ruthenium to the concentration of DNA-phosphate, cf is the concentration of ruthenium free in soltuion, Kb the intrinsic binding constant, and the integer /, which measures the degree of anti-cooperativeity, is the size of a binding site in base pairs. The curves shown reflect the best fit after variation of two parameters: the intrinsic binding constant, Kb, and binding stie size, /. For those complexes were cooperatively was observed, the equation (89) incorporating a cooperativity parameter was used.
Equilibrium dialysis experiments additionally offer the opportunity to examine any enantiomeric selectivities associated with binding. After dialysis of the DNA against the racemic mixture, optical activity observed in the dialysate refelects an enrichment in the dialysate in the less favored enantiomer. For most of the complexes, optical activity was found in the dialysate. Values for the extent of enantiomeric selectivity could not be quanitated in the absence of determinations of DE and assignments of absolute configuration. Assuming that the signs of the circular chroism in the ultraviolet ligand bands are the same for the these ligands as that for the parent phenanthroline complex, (90) we have assigned the absolute configuration of these complexes by comparison to spectra for enantiomers of Ru(phen)3^2+ and have compared levels of enantioselectivity qualitatively through measurements of circular dichroic intensity per rutheium bound. Based upon these assumptions, we find enantionmeric selectivities for the polyridyl complexes to reflect an enrichment in the isomer in the dialysate and the preferential binding of the isomer to the right-handed DNA. This observation is consistent with the preferential intercalation of isomers found earlier for Ru(phen)3^2+ in right-handed B-DNA. (63) We may also compare relative enantioselectivities for different ancillary ligands. […] The same comparison may be seen qualitatively between Ru(phen)2 DIP^2+ and Ru(bpy)2 DIP^2+.

calf thymus DNA [2] = assay: Absorption titration with calf thymus DNA (half-reciprocal, hypochromism); format: binding; conditions: in words; for binding to DNA: absorption changes too small for Kb
Source text: In plots of [DNA]/(εA -εF) versus [DNA], Kb is given by the ratio of the slope to intercept.

calf thymus DNA [3] = assay: Spectroscopic properties (absorption, emission, lifetime) on binding to calf thymus DNA; conditions: for Emission Enchantment (I/Io): 7 μM Ru, 40:1 nucleotide/metal, 20° C.
Method: Instrumentation: NMR spectra were recorded on a Varian VXR-300MHz spectormeter. FABS were performed using a VG Analytical 7070EQ Mas Spectrometer (78), and elemental analyses were done by Galbraith Laboratories in Nashville, Tenn. UV-Visible absorbance spectal were recorded on a Varian CARY-219 absorbance spectorphotometer. Extinction coefficients for the compounds were determined versus ruthenium concentrations obtained by atomic absorption spectroscopy with known ruthenium standards. [Ru(bpy)3 ]Cl2 solutions were also employed for these determinations as an internal standard. A varian AA-875 atomic absorption spectrophotometer was used for these determinations.
Emission spectra were measured on a Perkin-Elmer LS-5 fluorescence spectrometer. The samples were excited at their corresponding isosbestic points. All the measurements were made at 20° C. in a thermostatted cuvette holder with 3 nm entrance slit and 10 nm exit slit. Ruthenium solutions employed were 7 μM in concentration and claf thymus DNA was added to a ration of 40:1 nucleotide/metal; ruthenuim-DNA soltuions were allowed to incubate for 15 minutes before enhanced spectra were recorded. The emission enhancement factors were measured by comparing the intensitites at the emission spectral mixima in the absence ad presence of DNA, under similar conditions.
The limunescence lifetime measurements were done on a PRA SPC (single photon countining) spectometer with some minor modifications. The samples were excited with a nitrogen filled tnynratron gated flash lamp and the data were collected using a Tracor Northern 1710 multichannel analyser. The data were then transferred to a PDP-11/03 computer and deconvoluted with PRA software. […] concentrated solution of DNA (5mM DNA-phosphate) in buffer was added to a solution of the metal complex (4 μM) in buffer and allowed to equilibrate. Lifetimes of the samples were measured 0.5 hr after the metal complexes were mixed with DNA. All measurements were made at 20° C. and under air saturated conditions.
Furthermore, for all the complexes, this electronic transition is perturbed on binding to DNA.

B-form DNA = conditions: cited from earlier work
pBR322 DNA = assay: Unwinding of supercoiled pBR322 DNA (topoisomerase I assay); conditions: for EC50: read-out: Unwinding concentration, needed to unwind 11 of 22 supercoils, [DNA] 47 μM for phi complexes, 31.5 μM others, 60 min

Compound | Solubilities in Buffer (Solubility in buffer) | Site size (calf thymus DNA [1]) | aggregation in solution (calf thymus DNA [1]) | binding affinity for DNA (calf thymus DNA [1]) | hypochromism / absorption change on DNA addition (calf thymus DNA [2]) | Emission Enchantment (I/Io) (calf thymus DNA [3]) | Km × 10) equilibrium dialysis (intrinsic binding constant Kb) (calf thymus DNA [1]) | binding to DNA (calf thymus DNA [2]) | EC50 (pBR322 DNA) [µM] | Unwinding Angle (pBR322 DNA; per molecule of bound complex) [degrees] | also measured
[Ru+2].c1ccc(-c2ccnc3c2ccc2c(-c4ccccc4)ccnc23)cc1.c1ccc(-c2ccnc3c2ccc2c(-c4ccccc4)ccnc23)cc1.c1cnc2c(c1)ccc1cccnc12 [Ru(DIP)2 (phen)^2+] | 0.18 (.01) mM | cooperative | tend to agfregate in solution | binding similar to that of Ru(phen2 DIP^2+ | greatest change in absorption | 2.14 |  |  |  |  | solubility (Solubility in buffer; listed as Ru(DIP)2 (phen)2): only sparingly soluble in the buffer solution; solubility (Solubility in buffer; listed as Ru(DIP)2)phen)^2+): too insoluble; binding curve type (cooperativity) (calf thymus DNA [1]): cooperatiove binding
[Ru+2].c1ccc(-c2ccnc3c2ccc2c(-c4ccccc4)ccnc23)cc1.c1ccc(-c2ccnc3c2ccc2c(-c4ccccc4)ccnc23)cc1.c1ccc(-c2ccnc3c2ccc2c(-c4ccccc4)ccnc23)cc1 [Ru(DIP)3^2+, reference compound] |  |  | extensive aggregation | appear to bind DNA more avidly |  |  |  |  |  |  | enantiomer selectively bound by B-form DNA (B-form DNA): Δ-enantiomers
[Ru+2].c1ccc(-c2ccccn2)nc1.c1ccc(-c2ccccn2)nc1.c1ccc(-c2ccnc3c2ccc2c(-c4ccccc4)ccnc23)cc1 [Ru(bpy)2 (DIP)^2+] |  | 12-18 base pairs |  |  |  | 1.13 | 1.7(.3) × 10 | bound very weakly | 170 |  | 
[Ru+2].c1ccc(-c2ccccn2)nc1.c1ccc(-c2ccccn2)nc1.c1cnc2c(c1)ccc1cccnc12 [Ru(bpy)2 (phen)^2+] |  | 10-14 base pairs |  |  | litle hypochromic effect | 1.12 | 0.7(.07) × 10 | bound very weakly | 69 |  | 
[Ru+2].c1ccc(-c2ccccn2)nc1.c1ccc(-c2ccccn2)nc1.c1ccc(-c2ccccn2)nc1 [Ru(bpy)3^2+, reference compound] |  | 6-12 base pairs |  |  | litle hypochromic effect | 1.06 | 0.7(.13) × 10 | bound very weakly | 650 |  | intercalation (calf thymus DNA [3]; in words): neither intercalates nor surface-binds to the helix; unwinding of the helix (pBR322 DNA; in words): shows little significant unwinding of the helix
[Ru+2].c1ccc(-c2ccnc3c2ccc2c(-c4ccccc4)ccnc23)cc1.c1cnc2c(c1)ccc1cccnc12.c1cnc2c(c1)ccc1cccnc12 [Ru(phen)2 (DIP)^2+] | 9. (1.2) mM | cooperative | tend to agfregate in solution |  | greatest change in absorption | 2.06 |  |  | 9 |  | solubility (Solubility in buffer): only sparingly soluble in the buffer solution; binding curve type (cooperativity) (calf thymus DNA [1]): cooperatiove binding
[Ru+2].c1ccc(-c2ccccn2)nc1.c1cnc2c(c1)ccc1cccnc12.c1cnc2c(c1)ccc1cccnc12 [Ru(phen)2 (bpy)^2+] |  | 5-7 base pairs |  |  |  | 1.43 |  |  | 11 | 18 | 
O=C1c2cccnc2-c2ncccc21.[Ru+2].c1cnc2c(c1)ccc1cccnc12.c1cnc2c(c1)ccc1cccnc12 [Ru(phen)2 (flone)^2+, [Ru(phen)2 (4,5-diazafuorene-9-one)]Cl2] | 60. (2.2) mM | 9-12 base pairs |  | indistinguishable from that for Ru(phen)2 bpy^2+ |  |  |  | bound very weakly |  |  | Enantioselectivity (calf thymus DNA [1]): no enantiomeric discrimination is apparent; Enantioselectivity (calf thymus DNA [1]; listed as Ru(phen) (flone)Cl): none; binding affinity for DNA (calf thymus DNA [1]; listed as Ru(phen)^2+2. flone): much lower than would be expected based upon their solvent accessible surfaces
N=C1C(=N)c2ccccc2-c2ccccc21.[Ru+2].c1cnc2c(c1)ccc1cccnc12.c1cnc2c(c1)ccc1cccnc12 [Ru(phen)2 (phi)^2+] | 0.17 (.01) mM | 2-3 base pairs |  |  | hypochromism and a large red shift |  |  |  | 1.2 | 26 | intensity in circular dichroism per ruthenium bound (calf thymus DNA [1]; relative to Ru(bpy)2 phi^2+): more than three times greater; Unwinding Angle (pBR322 DNA): 26 °
[Ru].c1cnc2c(c1)ccc1cccnc12.c1cnc2c(c1)ccc1cccnc12.c1cnc2c(c1)ccc1cccnc12 [Ru(phen)3^2+, reference compound] | 159. (5.3) mM | 4 base pairs |  |  |  | 1.87 |  |  | 9 | 19 | enantiomer selectively bound by B-form DNA (B-form DNA): Δ-enantiomers; Unwinding Angle (pBR322 DNA): 19 °
